Test results published in the supplement of paper PMC10307832.

Legend:
Experiment in all cases: relative viability (nuclei count vs DMSO), 5 days (fraction); higher = more cells survive
Fedratinib + Alpelisib = compound: Cc1cnc(Nc2ccc(OCCN3CCCC3)cc2)nc1Nc1cccc(S(=O)(=O)NC(C)(C)C)c1 [Fedratinib] + Cc1nc(NC(=O)N2CCC[C@H]2C(N)=O)sc1-c1ccnc(C(C)(C)C(F)(F)F)c1 [Alpelisib] (partner 2 µM)
How it was run: (§1)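 Relative viability equals treated-well nuclei counts divided by vehicle-well nuclei counts. Counts came from 4× images of lung cancer cell lines grown in 1536-well plates for 5 days after pin-tool dosing on the day after seeding. Dosing used one drug alone or a fixed anchor-drug dose plus five library-drug doses (not always all listed) in √10 steps, and values are medians of duplicate plates.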

GW-2580 + Palbociclib = compound: COC1=CC=C(C=C1)COC2=C(C=C(C=C2)CC3=CN=C(N=C3N)N)OC [GW-2580] + CC(=O)c1c(C)c2cnc(Nc3ccc(N4CCNCC4)cn3)nc2n(C2CCCC2)c1=O [Palbociclib] (partner 0.5 µM)
How it was run: as §1

Fedratinib + Vorinostat = compound: Cc1cnc(Nc2ccc(OCCN3CCCC3)cc2)nc1Nc1cccc(S(=O)(=O)NC(C)(C)C)c1 [Fedratinib] + O=C(CCCCCCC(=O)Nc1ccccc1)NO [Vorinostat] (partner 1 µM)
How it was run: as §1

Fedratinib + Lapatinib = compound: Cc1cnc(Nc2ccc(OCCN3CCCC3)cc2)nc1Nc1cccc(S(=O)(=O)NC(C)(C)C)c1 [Fedratinib] + CS(=O)(=O)CCNCc1ccc(-c2ccc3ncnc(Nc4ccc(OCc5cccc(F)c5)c(Cl)c4)c3c2)o1 [Lapatinib] (partner 2 µM)
How it was run: as §1

Fedratinib + Decitabine = compound: Cc1cnc(Nc2ccc(OCCN3CCCC3)cc2)nc1Nc1cccc(S(=O)(=O)NC(C)(C)C)c1 [Fedratinib] + Nc1ncn([C@H]2C[C@H](O)[C@@H](CO)O2)c(=O)n1 [Decitabine] (partner 2 µM)
How it was run: as §1

GW-2580 + Phenformin = compound: COC1=CC=C(C=C1)COC2=C(C=C(C=C2)CC3=CN=C(N=C3N)N)OC [GW-2580] + N=C(N)NC(=N)NCCc1ccccc1 [Phenformin] (partner 250 µM)
How it was run: as §1

Row | Cell Line | relative viability (Fedratinib + Alpelisib; first compound 0.1 µM) | relative viability (Fedratinib + Alpelisib; first compound 0.3162 µM) | relative viability (Fedratinib + Alpelisib; first compound 1 µM) | relative viability (GW-2580 + Palbociclib; first compound 0.08 µM) | relative viability (GW-2580 + Palbociclib; first compound 0.8 µM) | relative viability (GW-2580 + Palbociclib; first compound 2.53 µM) | relative viability (GW-2580 + Palbociclib; first compound 8 µM) | relative viability (Fedratinib + Vorinostat; first compound 0.1 µM) | relative viability (Fedratinib + Vorinostat; first compound 0.3162 µM) | relative viability (Fedratinib + Vorinostat; first compound 1 µM) | relative viability (Fedratinib + Lapatinib; first compound 0.1 µM) | relative viability (Fedratinib + Lapatinib; first compound 0.3162 µM) | relative viability (Fedratinib + Lapatinib; first compound 1 µM) | relative viability (Fedratinib + Decitabine; first compound 0.1 µM) | relative viability (Fedratinib + Decitabine; first compound 0.3162 µM) | relative viability (Fedratinib + Decitabine; first compound 1 µM) | relative viability (GW-2580 + Phenformin; first compound 0.08 µM) | relative viability (GW-2580 + Phenformin; first compound 0.8 µM) | relative viability (GW-2580 + Phenformin; first compound 2.53 µM) | relative viability (GW-2580 + Phenformin; first compound 8 µM)
1 | HARA | 0.84 | 0.793 | 0.743 | 0.238 | 0.24 | 0.265 | 0.291 | 0.512 | 0.629 | 0.51 | 0.75 | 0.627 | 0.384 | 0.485 | 0.551 | 0.427 | 0.461 | 0.524 | 0.328 | 0.304
2 | NCI-H838 | 0.979 | 0.954 | 0.954 | 0.228 | 0.25 | 0.2 | 0.251 | 0.713 | 0.693 | 0.575 | 0.875 | 1.02 | 0.205 | 0.444 | 0.454 | 0.431 | 0.651 | 0.59 | 0.549 | 0.648
3 | NCI-H1755 | 0.969 | 0.886 | 0.82 | 0.458 | 0.422 | 0.455 | 0.41 | 0.761 | 0.786 | 0.705 | 1.02 | 1 | 0.942 | 0.662 | 0.723 | 0.664 | 0.667 | 0.631 | 0.326 | 0.594
4 | HCC-78 | 0.324 | – | 0.34 | 0.459 | 0.522 | – | 0.5 | 0.382 | 0.514 | 0.469 | 0.929 | – | 0.609 | 0.693 | 0.73 | 0.705 | 0.743 | 0.655 | 0.543 | 0.583
5 | IA-LM | 0.563 | 0.758 | 0.658 | – | – | – | – | 0.901 | 0.95 | 0.979 | 0.873 | 0.632 | 0.46 | – | – | – | – | – | – | –
6 | NCI-H322M | 0.814 | 0.75 | 0.771 | 0.5 | 0.453 | 0.476 | 0.29 | 0.87 | 0.969 | 0.735 | 0.608 | 0.615 | 0.523 | 0.657 | 0.749 | 0.64 | 0.787 | 0.819 | 0.866 | 0.782
7 | NCI-H3122 | 0.833 | 0.682 | 0.7 | 0.207 | 0.199 | 0.189 | 0.195 | 1.07 | 1 | 0.988 | 1.04 | 0.966 | 0.555 | 0.392 | 0.417 | 0.403 | 0.41 | 0.366 | 0.339 | 0.341
8 | NCI-H1792 | 0.458 | 0.662 | 0.666 | 0.96 | 0.997 | – | 0.678 | – | – | – | 0.879 | 0.905 | 0.827 | 0.429 | 0.438 | 0.504 | 0.4 | 0.226 | 0.146 | 0.313
9 | ChaGo-K-1 | – | – | – | 0.927 | 0.943 | 0.88 | 0.895 | 0.74 | 0.757 | 0.718 | – | – | – | 0.488 | 0.513 | 0.544 | 0.594 | 0.476 | 0.454 | 0.514
10 | NCI-H2342 | – | – | – | 0.547 | 0.543 | 0.511 | 0.53 | 0.94 | 0.71 | 0.926 | – | – | – | 0.753 | 0.759 | 0.745 | 0.57 | 0.725 | 0.509 | 0.567
11 | NCI-H1299 | 1.08 | 1.07 | 1.05 | – | – | – | – | – | – | – | 0.963 | 0.96 | 0.983 | – | – | – | – | – | – | –
12 | NCI-H1650 | – | – | – | 0.395 | 0.48 | 0.354 | 0.326 | 0.433 | 0.581 | 0.605 | 0.548 | 0.925 | 0.183 | 0.454 | 0.349 | 0.399 | 0.516 | 0.461 | 0.372 | 0.536
13 | SW 900 | – | – | – | 0.593 | 0.562 | 0.593 | 0.567 | 0.344 | 0.377 | 0.462 | – | – | – | 0.399 | 0.425 | 0.516 | 0.856 | 0.632 | 0.472 | 0.633
14 | NCI-H596 | 0.459 | 0.576 | 0.506 | – | – | – | – | 0.602 | 0.573 | 0.439 | 0.961 | 1.07 | 0.829 | 0.937 | 1.01 | 0.975 | 0.92 | 0.657 | 0.811 | 0.804
15 | NCI-H1648 | – | – | – | 0.293 | – | 0.274 | 0.239 | 0.291 | 0.36 | 0.616 | – | – | – | 0.473 | 0.51 | 0.443 | – | – | – | –
16 | NCI-H522 | – | – | – | 1.04 | 1.06 | 0.825 | 1.04 | 0.703 | 0.82 | 0.895 | – | – | – | 0.634 | 0.698 | 0.668 | 0.659 | 0.638 | 0.959 | 0.754
17 | A549 | 0.74 | 0.691 | 0.622 | – | – | – | – | – | – | – | 1.16 | 0.907 | 0.875 | 0.121 | 0.302 | 0.257 | 0.19 | 0.193 | 0.105 | 0.0849
18 | NCI-H1563 | 0.853 | 0.909 | 0.916 | – | – | – | – | – | – | – | 0.915 | 1.07 | 0.65 | – | – | – | 0.69 | 0.679 | 0.647 | 0.637
19 | LCLC-103H | 1.07 | 0.816 | 0.938 | 0.51 | 0.48 | 0.459 | 0.493 | 0.768 | 0.752 | 0.718 | – | – | – | 0.725 | 0.734 | 0.703 | 0.345 | 0.328 | 0.331 | 0.376
20 | NCI-H441 | 0.607 | 0.655 | 0.557 | 0.228 | 0.212 | 0.206 | 0.2 | 0.921 | 0.749 | 0.615 | – | – | – | 0.223 | 0.218 | 0.233 | 0.997 | 0.852 | 0.773 | 1.05
